Target: 5-hydroxytryptamine receptor 7 (Homo sapiens, UniProt P34969)
Experiment: Displacement of [3H] D-lysergic acid diethylamide from 5-HT7R (unknown origin) transfected in HEK293 cells incubated for 1.5 hrs by microbeta scintillation counter analysis

5-hydroxytryptamine receptor 7, sequence (P34969 whole entry): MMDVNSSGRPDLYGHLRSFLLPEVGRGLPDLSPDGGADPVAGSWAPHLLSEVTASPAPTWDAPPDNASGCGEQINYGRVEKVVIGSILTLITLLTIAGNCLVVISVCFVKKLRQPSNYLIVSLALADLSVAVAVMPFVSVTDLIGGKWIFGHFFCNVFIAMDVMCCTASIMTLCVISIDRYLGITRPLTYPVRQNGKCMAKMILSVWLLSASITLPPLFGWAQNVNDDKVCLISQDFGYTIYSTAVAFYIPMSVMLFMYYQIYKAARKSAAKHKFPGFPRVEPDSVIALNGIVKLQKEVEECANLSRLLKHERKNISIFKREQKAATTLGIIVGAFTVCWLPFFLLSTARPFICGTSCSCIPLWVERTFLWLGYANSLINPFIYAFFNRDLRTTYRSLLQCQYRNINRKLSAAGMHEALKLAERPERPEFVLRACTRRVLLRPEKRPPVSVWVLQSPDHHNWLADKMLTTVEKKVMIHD

Row | SMILES | Ki [nM]
1 | CNCCc1ccc(Cl)c(-c2ccccc2OC)c1 | 2.8
2 | CCNCCc1ccc(Cl)c(-c2ccccc2OC)c1 | 1.58
